Experimental data as given in patent EP4786487A1, “PEPTIDE” (Peptidream Inc, priority 2023, dated 2025).
Read-outs that look alike come from different tables or passages of the source. Starred links: 1 amine or outer side, 2 acyl side, 3 side chain; linkers in the order of their positions; H or OH if unused. Positions of bridges follow the written chain, without caps; N, C: chain ends. Non-standard residues stand in square brackets, D forms with d. Residues, ends and D or L forms follow the SMILES beside them. *: point of attachment. Phe(3-OCH2COOH) = N[C@@H](Cc1cccc(OCC(=O)O)c1)C(=O)O; Phe(4-COOH) = N[C@@H](Cc1ccc(C(=O)O)cc1)C(=O)O; Trp(6-aza) = N[C@@H](Cc1c[nH]c2cnccc12)C(=O)O; Trp(7-aza) = N[C@@H](Cc1c[nH]c2ncccc12)C(=O)O; NMePhe(3-Me) = CN[C@@H](Cc1cccc(C)c1)C(=O)O; Piperidinyl(4-CH2COOH) = O=C(O)CC1CCN(*)CC1; Bip = N[C@@H](Cc1ccc(-c2ccccc2)cc1)C(=O)O; Phe(3-OMe) = COc1cccc(C[C@H](N)C(=O)O)c1; Gly(decyl) = CCCCCCCCCC[C@H](N)C(=O)O; Gly(N(CH2)3COOH) = O=C(O)CCCNCC(=O)O; X1 = CCCCCCC[C@H](N[*:1])C(=O)[*:2]; X7 = COCCCCC[C@H](N[*:1])C(=O)[*:2]; NMeF = CN[C@@H](Cc1ccccc1)C(=O)O; 4Pal = N[C@@H](Cc1ccncc1)C(=O)O; NMeE = CN[C@@H](CCC(=O)O)C(=O)O; dNMeC = CN[C@H](CS)C(=O)O; Carboxymethyl = O=C(O)C*; NMeA = CN[C@@H](C)C(=O)O; X9 = NC(=O)CC1CCN(*)CC1; NEtG = CCNCC(=O)O; Sar = CNCC(=O)O

Columns and labels:
GDF-11 = molecular target: T1, GDF-11 (Homo sapiens, UniProt O95390); test: HepG2 reporter gene assay, Evaluation Procedure (2): 2-concentrations assay, GDF-11 inhibition; format: cell-based; settings: for inhibition at 0.03 µM: HepG2, peptide 30nM, read-out: GDF11 Inhibition 30nM; for inhibition at 0.03 µM / inhibition at 0.1 µM: GDF-11 10 ng/mL; for inhibition at 0.1 µM: HepG2, peptide 100nM, read-out: GDF11 Inhibition 100nM; for inhibition: read-out: inhibition rate (GDF-11 inhibition assay)
T1 construct: purchased R&D systems 1958-GD-G8/CF
T1 sequence (O95390 299-407): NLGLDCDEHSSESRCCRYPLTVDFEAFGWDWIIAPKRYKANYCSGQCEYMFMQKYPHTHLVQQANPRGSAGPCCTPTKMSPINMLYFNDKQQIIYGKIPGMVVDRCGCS
How it was run: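 HepG2 cells carrying the transfected pGL3(CAGA)12-luc reporter, a pGL3 vector with luciferase placed downstream of 12 CAGA repeats, were stimulated with GDF-11 at a final 10 ng/mL together with test peptide. Blank wells received no GDF-11 and no peptide. Plates were incubated 20 to 24 hours at 37°C with 5% CO2. Luminescence from One-Glo substrate was read to calculate percent inhibition.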

Myostatin = molecular target: T2, Myostatin (Homo sapiens, UniProt O14793); test: HepG2 reporter gene assay, Evaluation Procedure (2): 2-concentrations assay, myostatin inhibition; format: cell-based; settings: HepG2
T2 construct: active myostatin (also called mature myostatin) is a homodimer consisting of two C-terminal growth factor domains; purchased R&D systems 788-G8/CF
T2 sequence (O14793 267-375): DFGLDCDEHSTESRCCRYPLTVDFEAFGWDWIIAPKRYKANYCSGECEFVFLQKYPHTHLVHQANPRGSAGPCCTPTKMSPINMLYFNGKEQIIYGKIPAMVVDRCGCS
How it was run: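 HepG2 cells (HB-8065, ATCC) carrying the transfected pGL3(CAGA)12-luc reporter plasmid were treated with myostatin (788-G8/CF, R&D systems) at a final concentration of 10 ng/mL plus peptide and incubated at 37°C, 5% CO2 for 20 to 24 hours. Luminescence was read after adding PBS mixed 1:1 with One-Glo substrate, and inhibition rate was calculated.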

[1] = peptide 30nM, Myostatin 10 ng/mL, read-out: Myostatin Inhibition 30nM
[2] = peptide 100nM, Myostatin 10 ng/mL, read-out: Myostatin Inhibition 100nM
[3] = HepG2, first GDF-11 column of Table 7-3/7-4, GDF-11 10 ng/mL, peptide at the lower of the 2 concentrations
[4] = HepG2, second GDF-11 column of Table 7-3/7-4, GDF-11 10 ng/mL, peptide at the higher of the 2 concentrations
[5] = Table 7-3/7-4, myostatin 10 ng/mL, peptide at the higher of the 2 concentrations, read-out: inhibition rate (myostatin inhibition assay)
[6] = Table 7-3/7-4, myostatin 10 ng/mL, peptide at the lower of the 2 concentrations, read-out: inhibition rate (myostatin inhibition assay)

Structure (SMILES)	inhibition at 0.03 µM (GDF-11) [%]	inhibition at 0.1 µM (GDF-11) [%]	inhibition at 0.03 µM (Myostatin; [1]) [%]	inhibition at 0.1 µM (Myostatin; [2]) [%]	inhibition (GDF-11; [3]) [%]	inhibition (GDF-11; [4]) [%]	inhibition at 0.1 µM (Myostatin; [5]) [%]	inhibition at 0.03 µM (Myostatin; [6]) [%]
CCCCCCC[C@@H]1NC(=O)[C@H](Cc2ccccc2)N(C)C(=O)[C@H](CCCNC(=N)N)NC(=O)[C@H](Cc2ccc(C(=O)O)cc2)NC(=O)[C@H](Cc2cccc(OCC(=O)O)c2)NC(=O)CN(C)C(=O)[C@H]([C@@H](C)CC)NC(=O)[C@H](Cc2ccccc2)N(C)C(=O)[C@H](Cc2ccc(O)cc2)NC(=O)[C@H](Cc2c[nH]c3cnccc23)NC(=O)[C@H](C)NC(=O)[C@H](C)NC(=O)CSC[C@H](C(=O)O)NC(=O)[C@H](Cc2ccccc2)N(C)C(=O)[C@H](C)N(C)C1=O [Myostatin_99_v208] ({CH2CO}-AA[Trp(6-aza)]Y[NMeF]I[Sar][Phe(3-OCH2COOH)][Phe(4-COOH)]R[NMeF][X1][NMeA][NMeF][dC]-OH; thioether N-15)	0	20	98	100				
CCCCCCCCCC[C@@H]1NC(=O)[C@H](Cc2ccccc2)N(C)C(=O)[C@H](CCCNC(=N)N)NC(=O)[C@H](Cc2ccc(C(=O)O)cc2)NC(=O)[C@H](Cc2cccc(OCC(=O)O)c2)NC(=O)CN(CC)C(=O)[C@H]([C@@H](C)CC)NC(=O)[C@H](Cc2ccccc2)N(C)C(=O)[C@H](Cc2ccc(O)cc2)NC(=O)[C@H](Cc2c[nH]c3ccccc23)NC(=O)[C@H](C)NC(=O)[C@H](C)NC(=O)CSC[C@H](C(=O)N2CCC(CC(=O)O)CC2)NC(=O)[C@H](Cc2ccccc2)N(C)C(=O)[C@H](CCC(=O)O)N(C)C1=O [Myostatin_99_v336] ({CH2CO}-AAWY[NMeF]I[NEtG][Phe(3-OCH2COOH)][Phe(4-COOH)]R[NMeF][Gly(decyl)][NMeE][NMeF][dC]-{Piperidinyl(4-CH2COOH)}; thioether N-15)					0	0	100	99
CC[C@H](C)[C@@H]1NC(=O)[C@H](Cc2ccccc2)N(C)C(=O)[C@H](Cc2ccc(O)cc2)NC(=O)[C@H](Cc2c[nH]c3ccccc23)NC(=O)[C@H](C)NC(=O)CN(CCCC(=O)O)C(=O)CSC[C@H](C(=O)O)NC(=O)[C@H](Cc2ccccc2)N(C)C(=O)[C@H](C)N(C)C(=O)[C@H](CCCCCOC)NC(=O)[C@H](Cc2ccccc2)N(C)C(=O)[C@H](CCCNC(=N)N)NC(=O)[C@H](Cc2ccc(C(=O)O)cc2)NC(=O)[C@H](Cc2ccncc2)NC(=O)CN(C)C1=O [Myostatin_99_v228] ({CH2CO}-[Gly(N(CH2)3COOH)]AWY[NMeF]I[Sar][4Pal][Phe(4-COOH)]R[NMeF][X7][NMeA][NMeF][dC]-OH; thioether N-15)	4	0	19	60				
CCCCCCC[C@@H]1NC(=O)[C@H](Cc2ccccc2)N(C)C(=O)[C@H](CCCNC(=N)N)NC(=O)[C@H](Cc2ccc(C(=O)O)cc2)NC(=O)[C@H](Cc2ccncc2)NC(=O)CN(C)C(=O)[C@H]([C@@H](C)CC)NC(=O)[C@H](Cc2ccccc2)N(C)C(=O)[C@H](Cc2ccc(O)cc2)NC(=O)[C@H](Cc2c[nH]c3ccccc23)NC(=O)[C@H](C)NC(=O)CN(CC(=O)O)C(=O)CSC[C@H](C(=O)O)NC(=O)[C@H](Cc2ccccc2)N(C)C(=O)[C@H](C)N(C)C1=O [Myostatin_99_v222]	0	8	93	99				
CC[C@H](C)[C@@H]1NC(=O)[C@H](Cc2cccc(C)c2)N(C)C(=O)[C@H](Cc2ccc(O)cc2)NC(=O)[C@H](Cc2ccc(-c3ccccc3)cc2)NC(=O)[C@H](C)NC(=O)CN(CCCC(=O)O)C(=O)CSC[C@H](C(=O)O)NC(=O)[C@H](Cc2ccccc2)N(C)C(=O)[C@H](C)N(C)C(=O)[C@H](CC(C)C)NC(=O)[C@H](Cc2ccccc2)N(C)C(=O)[C@H](CCCNC(=N)N)NC(=O)[C@H](Cc2ccc(C(=O)O)cc2)NC(=O)[C@H](Cc2cccc(OCC(=O)O)c2)NC(=O)CN(C)C1=O [Myostatin_99_v119] ({CH2CO}-[Gly(N(CH2)3COOH)]A[Bip]Y[NMePhe(3-Me)]I[Sar][Phe(3-OCH2COOH)][Phe(4-COOH)]R[NMeF]L[NMeA][NMeF][dC]-OH; thioether N-15)	0	0	46	70				
CCCCCCC[C@@H]1NC(=O)[C@H](Cc2ccccc2)N(C)C(=O)[C@H](CCCNC(=N)N)NC(=O)[C@H](Cc2ccc(C(=O)O)cc2)NC(=O)[C@H](Cc2cccc(OCC(=O)O)c2)NC(=O)[C@H](C)N(C)C(=O)[C@H]([C@@H](C)CC)NC(=O)[C@H](Cc2ccccc2)N(C)C(=O)[C@H](Cc2ccc(O)cc2)NC(=O)[C@H](Cc2c[nH]c3ccccc23)NC(=O)[C@H](C)NC(=O)CN(CCCC(=O)O)C(=O)CSC[C@H](C(N)=O)N(C)C(=O)[C@H](Cc2ccccc2)N(C)C(=O)[C@H](C)N(C)C1=O [Myostatin_99_v439] ({CH2CO}-[Gly(N(CH2)3COOH)]AWY[NMeF]I[NMeA][Phe(3-OCH2COOH)][Phe(4-COOH)]R[NMeF][X1][NMeA][NMeF][dNMeC]-NH2; thioether N-15)					2	36	100	100
CCCCCCCCCC[C@@H]1NC(=O)[C@H](Cc2ccccc2)N(C)C(=O)[C@H](CCCNC(=N)N)NC(=O)[C@H](Cc2ccc(C(=O)O)cc2)NC(=O)[C@H](Cc2cccc(OCC(=O)O)c2)NC(=O)[C@H]2CCCN2C(=O)[C@H]([C@@H](C)CC)NC(=O)[C@H](Cc2ccccc2)N(C)C(=O)[C@H](Cc2ccc(O)cc2)NC(=O)[C@H](Cc2c[nH]c3ccccc23)NC(=O)[C@H](C)NC(=O)[C@H](C)NC(=O)CSC[C@H](C(=O)N2CCC(CC(N)=O)CC2)NC(=O)[C@H](Cc2ccccc2)N(C)C(=O)[C@H](CCC(=O)O)N(C)C1=O [Myostatin_99_v347] ({CH2CO}-AAWY[NMeF]I[dP][Phe(3-OCH2COOH)][Phe(4-COOH)]R[NMeF][Gly(decyl)][NMeE][NMeF][dC]-X9; thioether N-15)					0	8	100	100
CC[C@H](C)[C@@H]1NC(=O)[C@H](Cc2ccccc2)N(C)C(=O)[C@H](Cc2ccc(O)cc2)NC(=O)[C@H](Cc2c[nH]c3ccccc23)NC(=O)[C@H](C)NC(=O)CN(CCCC(=O)O)C(=O)CSC[C@H](C(=O)O)NC(=O)[C@H](Cc2ccccc2)N(C)C(=O)[C@H](C)N(C)C(=O)[C@H](CC(C)C)NC(=O)[C@H](Cc2ccccc2)N(C)C(=O)[C@H](CCCNC(=N)N)NC(=O)[C@H](Cc2ccc(OCC(=O)O)cc2)NC(=O)[C@H](Cc2cccc(OC)c2)NC(=O)[C@H](C)N(C)C1=O [Myostatin_99_v126] ({CH2CO}-[Gly(N(CH2)3COOH)]AWY[NMeF]I[NMeA][Phe(3-OMe)]Y(Carboxymethyl)R[NMeF]L[NMeA][NMeF][dC]-OH; thioether N-15)	0	0	28	68				
CC[C@H](C)[C@@H]1NC(=O)[C@H](Cc2ccccc2)N(C)C(=O)[C@H](Cc2ccc(O)cc2)NC(=O)[C@H](Cc2c[nH]c3ncccc23)NC(=O)[C@H](C)NC(=O)CN(CCCC(=O)O)C(=O)CSC[C@H](C(=O)O)NC(=O)[C@H](Cc2ccccc2)N(C)C(=O)[C@H](C)N(C)C(=O)[C@H](CC(C)C)NC(=O)[C@H](Cc2ccccc2)N(C)C(=O)[C@H](CCCNC(=N)N)NC(=O)[C@H](Cc2ccc(OCC(=O)O)cc2)NC(=O)[C@H](Cc2cccc(OC)c2)NC(=O)[C@H](C)N(C)C1=O [Myostatin_99_v127] ({CH2CO}-[Gly(N(CH2)3COOH)]A[Trp(7-aza)]Y[NMeF]I[NMeA][Phe(3-OMe)]Y(Carboxymethyl)R[NMeF]L[NMeA][NMeF][dC]-OH; thioether N-15)	0	0	31	57				
